Test results reported in paper PMC6449286, “Influence of Multidrug Resistance-Associated Proteins on the Excretion of the ABCC1 Imaging Probe 6-Bromo-7-[^11C]Methylpurine in Mice” (Molecular Imaging and Biology, 2018).
Marks after values point to notes of the source that are not given here.

Tests used:
[1] = Baseline 6-bromo-7-[^11C]methylpurine PET in vehicle-treated wild-type mice; type: in vivo
Description: (§1) Groups of wild-type, Abcc4^(−/−), Abcc1^(−/−), and Abcc1^(+/−) mice underwent a baseline PET scan with 6-bromo-7-[^11C]methylpurine at 30 min after i.p. injection of vehicle solution (PBS). […] In addition, groups of wild-type and Abcc1^(−/−) mice were used to determine the percentage of unchanged 6-bromo-7-[^11C]methylpurine in different tissues and fluids.
(§2) During all experimental procedures, animals were kept under isoflurane anesthesia. PET imaging was conducted on a microPET Focus220 scanner (Siemens Medical Solutions, Knoxville, TN, USA). […] Subsequently, 6-bromo-7-[^11C]methylpurine (29 ± 9 MBq in a volume of 0.1 ml, 0.17 ± 0.11 nmol) was administered as an i.v. bolus via the lateral tail vein, and a 90-min dynamic PET scan (energy window: 250–750 keV; timing window: 6 ns) was initiated at the start of radiotracer injection. […] Blood was centrifuged to obtain plasma and aliquots of blood and plasma were counted for radioactivity in a gamma counter (Wizard 1470; Perkin-Elmer, Waltham, MA, USA).
(§3) The PET data were sorted into 25 frames with a duration increasing from 5 s to 20 min. Fourier re-binning of the three-dimensional sinograms followed by a two-dimensional filtered back-projection with a ramp filter resulting in a voxel size of 0.4 × 0.4 × 0.796 mm^3 was used to reconstruct the PET data. Using AMIDE software, brain, right lung, left kidney, urinary bladder, liver, duodenum, intestine, and gall bladder were manually outlined on the PET images to derive concentration-time curves expressed in units of standardized uptake value (SUV = (radioactivity per g/injected radioactivity) × body weight). In addition, the left ventricle of the heart was outlined to obtain an image-derived blood curve. For all organs, the area under the concentration-time curve (AUC) from 0 to 90 min after radiotracer injection was calculated using Prism 7 software (GraphPad Software, La Jolla, CA, USA) and organ-to-blood AUC ratios were calculated. From the log-transformed concentration-time curves in blood, brain, lung, kidney, and liver, the elimination rate constant (kelimination) of radioactivity was determined by linear regression analysis from 17.5 to 80 min after radiotracer injection. A graphical analysis method (integration plot) was used to estimate the rate constant for transfer of radioactivity from blood into different organs (brain, kidney, and liver, kuptake, ml/min/g tissue) using data measured from 0.3 to 3.5 min after radiotracer injection, as described in detail before. Moreover, the rate constant for tubular secretion of radioactivity (kurine, min^−1) was determined from 12.5 to 65 min after radiotracer injection using integration plot analysis.

Abcc4 [2] = experiment: 6-bromo-7-[^11C]methylpurine PET in Abcc4^(−/−) mice; type: in vivo; details: Abcc4^(−/−) vs wild-type mice
Description: as §1, §2
The PET data were sorted into 25 frames with a duration increasing from 5 s to 20 min. […] Using AMIDE software, brain, right lung, left kidney, urinary bladder, liver, duodenum, intestine, and gall bladder were manually outlined on the PET images to derive concentration-time curves expressed in units of standardized uptake value (SUV = (radioactivity per g/injected radioactivity) × body weight). […] From the log-transformed concentration-time curves in blood, brain, lung, kidney, and liver, the elimination rate constant (kelimination) of radioactivity was determined by linear regression analysis from 17.5 to 80 min after radiotracer injection. A graphical analysis method (integration plot) was used to estimate the rate constant for transfer of radioactivity from blood into different organs (brain, kidney, and liver, kuptake, ml/min/g tissue) using data measured from 0.3 to 3.5 min after radiotracer injection, as described in detail before. […]

Abcc1 [3] = target: T1, Abcc1 (Mus musculus, UniProt O35379); parameters: method as in PMID 23596979, PMID 18985052; details: cited from earlier work
T1 construct: from tissue; host or cells: living C57BL/6J mice (wild-type versus Abcc1 knockout), obtained from the University of Oslo

[4] = Assessment of glutathione conjugation by radio-TLC in mouse tissues and fluids; details: for Percentage of S-(6-(7-[^11C]methylpurinyl))glutathione in bile / Percentage of S-(6-(7-[^11C]methylpurinyl))glutathione in brain / Percentage of S-(6-(7-[^11C]methylpurinyl))glutathione in kidney / Percentage of S-(6-(7-[^11C]methylpurinyl))glutathione in liver / Percentage of S-(6-(7-[^11C]methylpurinyl))glutathione in urine: 15 min after i.v. injection; for Percentage of S-(6-(7-[^11C]methylpurinyl))glutathione in plasma: 15 min after i.v. injection of 6-bromo-7-[^11C]methylpurine, n=3
Description: Assessment of Glutathione Conjugation
6-Bromo-7-[11C]methylpurine (26 ± 8 MBq in a volume of 0.1 ml, 0.15 ± 0.06 nmol) was administered i.v. to wild-type and Abcc1(-/-) mice (n = 3 per group) under isoflurane anesthesia.
After a period of 15 min, blood was collected from the retro-bulbar plexus and animals were euthanized. Brain, liver, kidneys, urine and bile were collected. Blood was centrifuged to obtain plasma and proteins were precipitated by the addition of acetonitrile (1 µl per µl plasma). Liver, kidneys and brain were homogenized using an Ultra Turrax T10 (IKA Laboratory Equipment, Staufen, Germany) and proteins were precipitated with acetonitrile (1 ml per liver, 0.2 ml per kidneys/brain). Urine and bile were diluted with acetonitrile (1 µl per µl urine and bile). All solutions were vortexed and then centrifuged (12,000 x g, 1 min, 21°C). Each supernatant (plasma, brain, liver, kidney, urine, bile, 5 µl each) and diluted radiotracer solution as reference were spotted on silica gel 60F 254 nm TLC plates (10 x 20 cm; Merck, Darmstadt, Germany) and plates were developed in water/acetonitrile/acetic acid (92/8/1, v/v/v). Detection was performed by placing the TLC plates on multisensitive phosphor screens (Perkin-Elmer). […]

Abcc1 [5] = target: T1, Abcc1; experiment: 6-bromo-7-[^11C]methylpurine PET in Abcc1 knockout mice; type: in vivo
Description: as §1, §2, §3

[6] = parameters: method as in PMID 1976057; details: rats ref 24; cited from earlier work
[7] = MK571 concentrations in plasma and kidneys (HPLC); type: in vivo, mice; details: mouse, intraperitoneal, 300 mg/kg
Description: Assessment of Glutathione Conjugation […]
euthanized. Brain, liver, kidneys, urine and bile were collected. Blood was centrifuged to obtain […]
fluorescence detector (G1321 FLD). […]
obtain a clear supernatant. The resulting supernatants were injected into the HPLC column.
(5 µm, 100-4.6 mm) preceded by a Chromolith Performance RP-18 pre-column (5 µm, 10-4.6 mm), which was isocratically eluted with acetonitrile/methanol/0.1% aqueous acetic acid (30/20/50, v/v/v) at a flow rate of 2 ml/min. For fluorescence detection, an excitation wavelength of 250 nm and an emission wavelength of 410 nm were used. MK571 eluted with a retention time of 10.1 min. Linear calibration curves were generated by spiking drug-free mouse plasma […]
average correlation coefficient: > 0.999).

ABCC4 [8] = system: ABCC4; parameters: method as in PMID 12695538, PMID 10760098; details: in vitro ref 20, 21; read-out: IC50 for inhibition of substrate transport by ABCC4; cited from earlier work
ABCC2 = system: ABCC2; parameters: method as in PMID 12695538, PMID 10760098; details: in vitro ref 20, 21; read-out: IC50 for inhibition of substrate transport by ABCC2; cited from earlier work
[9] = Abcc1^(−/−) relative to wild-type mice ref 12, 13

T1 sequence (O35379 whole entry): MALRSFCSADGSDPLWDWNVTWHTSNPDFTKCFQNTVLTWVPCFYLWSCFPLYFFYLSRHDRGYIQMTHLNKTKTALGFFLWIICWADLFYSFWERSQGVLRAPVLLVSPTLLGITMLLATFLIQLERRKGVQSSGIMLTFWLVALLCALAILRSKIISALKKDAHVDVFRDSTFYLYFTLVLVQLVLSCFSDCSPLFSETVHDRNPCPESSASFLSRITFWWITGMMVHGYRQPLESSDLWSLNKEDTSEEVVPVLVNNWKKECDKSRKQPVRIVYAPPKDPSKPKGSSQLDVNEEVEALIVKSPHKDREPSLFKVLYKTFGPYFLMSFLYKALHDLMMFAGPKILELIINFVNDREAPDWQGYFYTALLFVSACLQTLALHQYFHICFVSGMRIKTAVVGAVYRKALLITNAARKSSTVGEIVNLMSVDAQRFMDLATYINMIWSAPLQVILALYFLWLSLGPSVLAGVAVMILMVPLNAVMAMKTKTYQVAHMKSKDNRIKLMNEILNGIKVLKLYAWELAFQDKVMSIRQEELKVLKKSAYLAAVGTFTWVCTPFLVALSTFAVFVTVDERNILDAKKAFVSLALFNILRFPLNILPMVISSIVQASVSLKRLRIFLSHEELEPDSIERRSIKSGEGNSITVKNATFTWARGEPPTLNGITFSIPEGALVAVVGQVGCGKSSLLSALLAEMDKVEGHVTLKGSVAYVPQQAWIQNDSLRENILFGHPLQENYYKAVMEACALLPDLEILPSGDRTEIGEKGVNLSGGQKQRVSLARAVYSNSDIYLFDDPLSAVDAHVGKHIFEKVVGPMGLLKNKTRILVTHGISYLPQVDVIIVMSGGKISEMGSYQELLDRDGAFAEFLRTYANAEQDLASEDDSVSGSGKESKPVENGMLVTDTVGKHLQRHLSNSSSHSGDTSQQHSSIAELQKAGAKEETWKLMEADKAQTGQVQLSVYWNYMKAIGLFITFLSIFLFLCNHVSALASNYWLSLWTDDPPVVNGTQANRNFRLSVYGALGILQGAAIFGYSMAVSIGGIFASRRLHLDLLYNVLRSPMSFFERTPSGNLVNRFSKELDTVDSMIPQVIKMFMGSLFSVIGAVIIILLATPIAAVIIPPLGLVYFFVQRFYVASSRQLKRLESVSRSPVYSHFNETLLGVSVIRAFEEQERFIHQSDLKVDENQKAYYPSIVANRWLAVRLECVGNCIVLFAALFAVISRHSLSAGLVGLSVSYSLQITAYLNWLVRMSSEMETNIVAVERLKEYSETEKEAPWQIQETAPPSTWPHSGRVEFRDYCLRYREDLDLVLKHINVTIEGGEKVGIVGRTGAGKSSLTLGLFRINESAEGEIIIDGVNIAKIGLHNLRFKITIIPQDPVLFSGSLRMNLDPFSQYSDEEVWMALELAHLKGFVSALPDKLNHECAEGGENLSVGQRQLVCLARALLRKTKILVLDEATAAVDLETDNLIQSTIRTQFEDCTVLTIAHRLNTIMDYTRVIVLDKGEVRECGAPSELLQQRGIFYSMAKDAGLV

SMILES: [11CH3]n1cnc2ncnc(Br)c21 [6-bromo-7-[^11C]methylpurine]
- kelimination,brain ([1]; vehicle-treated wild-type mice): 1.37 ± 0.27 h⁻¹
- kuptake,brain ([1]; vehicle-treated wild-type mice): 0.113 ± 0.028 ml/min/g brain
- Extraction ratio, liver ([1]; vehicle-treated wild-type mice, assuming hepatic blood flow 1.0 ml/min/g tissue): 0.21
- Extraction ratio, kidneys ([1]; vehicle-treated wild-type mice, assuming renal blood flow 4.1 ml/min/g tissue): 0.18
- Plasma-to-blood ratio of radioactivity ([1]; wild-type mice, venous blood at end of PET scan): 1.46 ± 0.14
- Decrease in kelimination, brain (Abcc4 [2]): 1.5 fold
- Decrease in kelimination, kidneys (Abcc4 [2]): 1.4 fold
- Decrease in kurine (Abcc4 [2]): 2.3 fold
- Reduction in kelimination of radioactivity, brain (Abcc1 [3]; [9]): 9.3 fold
- Reduction in kelimination of radioactivity, lungs (Abcc1 [3]; [9]): 17.2 fold
- Conversion into glutathione conjugate in brain and lungs (Abcc1 [3]; mice, within 15 min after i.v. injection ref 12, 13): almost quantitatively converted into its glutathione conjugate
- Unchanged 6-bromo-7-[^11C]methylpurine in tissues and fluids ([4]; mouse, in vivo, 15 min): In none of the investigated tissues and fluids unchanged 6-bromo-7-[^11C]methylpurine could be detected
- Plasma-to-blood ratio of radioactivity (Abcc1 [5]; Abcc1^(−/−) mice, venous blood at end of PET scan): 0.60 ± 0.04
- Decrease in kurine (Abcc1 [5]; Abcc1^(−/−) vs wild-type mice): 3.4 fold
- Decrease in plasma-to-blood ratio of radioactivity (Abcc1 [5]; Abcc1^(−/−) vs wild-type mice): 2.4 fold
- Increase in blood AUC (Abcc1 [5]; Abcc1^(−/−) vs wild-type mice): 3.0 fold
- Increase in kuptake, liver (Abcc1 [5]; Abcc1^(−/−) vs wild-type mice): 1.6 fold
- Reduction in kelimination, blood (Abcc1 [5]; Abcc1^(−/−) vs wild-type mice): 3.6 fold
- Reduction in kelimination, lungs (Abcc1 [5]; Abcc1^(−/−) vs wild-type mice): 5.7 fold
- Reduction in kelimination,brain (Abcc1 [5]; Abcc1^(−/−) vs wild-type mice): 9.4 fold
- Reduction in kelimination,brain (Abcc1 [5]; heterozygous Abcc1^(+/−) vs wild-type mice): 1.3 fold

SMILES: Cn1cnc2ncnc(SC[C@H](NC(=O)CC[C@H](N)C(=O)O)C(=O)NCC(=O)O)c21 [S-(6-(7-[^11C]methylpurinyl))glutathione]
- Percentage of S-(6-(7-[^11C]methylpurinyl))glutathione in bile ([4]; Abcc1^(−/−) mice): 79 ± 1%
- Percentage of S-(6-(7-[^11C]methylpurinyl))glutathione in brain ([4]; Abcc1^(−/−) mice): 52 ± 0.4%
- Percentage of S-(6-(7-[^11C]methylpurinyl))glutathione in kidney ([4]; Abcc1^(−/−) mice): 63 ± 1%
- Percentage of S-(6-(7-[^11C]methylpurinyl))glutathione in liver ([4]; Abcc1^(−/−) mice): 32 ± 4%
- Percentage of S-(6-(7-[^11C]methylpurinyl))glutathione in urine ([4]; Abcc1^(−/−) mice): 63 ± 3^a %
- Percentage of S-(6-(7-[^11C]methylpurinyl))glutathione in plasma ([4]; Abcc1^(−/−) mice): 43 ± 2^a %
- Percentage of S-(6-(7-[^11C]methylpurinyl))glutathione in bile ([4]; wild-type mice): 81 ± 5%
- Percentage of S-(6-(7-[^11C]methylpurinyl))glutathione in brain ([4]; wild-type mice): 60 ± 8%
- Percentage of S-(6-(7-[^11C]methylpurinyl))glutathione in kidney ([4]; wild-type mice): 58 ± 2%
- Percentage of S-(6-(7-[^11C]methylpurinyl))glutathione in liver ([4]; wild-type mice): 37 ± 2%
- Percentage of S-(6-(7-[^11C]methylpurinyl))glutathione in urine ([4]; wild-type mice): 77 ± 4%
- Percentage of S-(6-(7-[^11C]methylpurinyl))glutathione in plasma ([4]; wild-type mice): 51 ± 2%

SMILES: CN(C)C(=O)CCS[C@@H](SCCC(=O)O)c1cccc(/C=C/c2ccc3ccc(Cl)cc3n2)c1 (single isomer, unassigned) [(S)-enantiomer of MK571]
- Apparent tissue unbound fraction [6]: 0.33

SMILES: CN(C)C(=O)CCSC(SCCC(=O)O)c1cccc(/C=C/c2ccc3ccc(Cl)cc3n2)c1 (stereo not drawn) [MK571]
- concentration at 120 min ([7]; C57BL/6J, kidney, Kidney unbound concentration of MK571, mice, from rat tissue unbound fraction of (R)-enantiomer): 98 µM
- concentration at 120 min ([7]; C57BL/6J, kidney, Kidney unbound concentration of MK571, mice, from rat tissue unbound fraction of (S)-enantiomer): 180 µM
- concentration at 120 min ([7]; C57BL/6J, kidney, Mean total MK571 concentration in the kidneys, wild-type mice, as restated in discussion): 544 µM
- concentration at 120 min ([7]; kidney, MK571 concentration in kidneys, wild-type mice, approximately 120 min after 300 mg/kg i.p.): 544 ± 58 µM
- concentration at 120 min ([7]; plasma, MK571 concentration in plasma, wild-type mice, approximately 120 min after 300 mg/kg i.p.): 251 ± 58 µM
- IC50 (ABCC4 [8]): 10 µM
- IC50 (ABCC2): 4 µM

SMILES: CN(C)C(=O)CCS[C@H](SCCC(=O)O)c1cccc(/C=C/c2ccc3ccc(Cl)cc3n2)c1 (single isomer, unassigned) [(R)-enantiomer of MK571]
- Apparent tissue unbound fraction [6]: 0.18
